From patent publication US20230381170A1, “METHOD FOR TREATING ALS/FTD THROUGH DEGRADATION OF RNA REPEAT EXPANSION” (University of Florida Research Foundation, Incorporated, priority 2020, published 2023)
Like-named read-outs stand apart in the source and are kept apart here.

Tests used:
[1] = system: transcripts containing short, non-pathogenic r(G4C2) repeats; assay: Off-target RT-qPCR of genes with short r(G4C2) repeats in patient-derived LCL; assay type: cell-based, human; conditions: 500 nM
Nup98 = Nup98 by structured illumination microscopy in patient-derived iPSNs; assay type: cell-based, human; conditions: 50 nM
Method: Nuclei Isolation and Super Resolution Structured Illumination Microscopy. iPSC-derived spinal neurons were generated according to the previously published diMNs protocol (37). On day 15 and 18 of differentiation, […] G4C2 repeat-targeting ASO was added to media as previously described (59). For compound treatment, 50 nM 7 was added to media on days 15, 18, 21, 24, 27, and 30 of differentiation. On day 32 of differentiation, nuclei isolation was performed using the Nuclei Pure Prep Nuclei Isolation Kit (Sigma Aldrich) as previously described (68). Isolated nuclei were spun onto collagen coated slides and immunostained following standard protocols as previously described (68). Primary antibodies: 1:250 rat anti-Nup98 (Abcam), 1:500 chicken anti-NeuN (Millipore); secondary antibodies: […] Alexa 488 (Invitrogen), goat anti-chicken Alexa 647 (Invitrogen). NeuN positive nuclei were imaged by super resolution structured illumination microscopy (SIM) using a Zeiss ELYRA S.1 as previously described (14). Next, 50 nuclei per iPSC line/treatment group were analyzed using the 3D suite plugin in FIJI. The average number of spots from the 50 nuclei for each cell line and treatment group was used for statistical analyses. […] Quantification is presented as violin plots to represent the full variability of all nuclei analyzed.

[2] = system: r(G4C2)exp-containing nuclear foci; assay: RNA foci imaging (RNA-FISH) in patient-derived LCLs; assay type: cell-based, human; conditions: 100 nM
Method: Imaging RNA Foci in LCLs. RNA foci containing r(G4C2)^exp were imaged using RNA fluorescence in situ hybridization (FISH) as previously described (13). Briefly, ALS patient-derived LCLs were treated with compound or ASO as described in “Measuring poly(GP) Levels by Electrochemiluminescence”. The cells were harvested, pelleted, and washed with 1×PBS. LCLs were then fixed in 2% paraformaldehyde in 1×PBS for 15 min at room temperature and then washed three times with 1×PBS. The fixed cells were then centrifuged, washed twice with 1×PBS, and seeded into poly lysine coated, glass bottom 96-well plates (˜5×10^5 cells/well). To ensure the cells adhered to the plate, they were incubated at 37° C. for >2 h. The cells were then incubated with 70% ethanol overnight at 37° C. The next day, LCLs were washed with 1×PBS for 15 min at room temperature, and then with 1×PBS containing 0.1% (v/v) Triton X-100 for 5 min at room temperature. […] Quantification was performed in triplicate with ˜200 nuclei counted per sample. Average number of foci per nuclei was assessed for each sample and reported. Statistical analysis was measured using an unpaired t-test with Welch's correction.

[3] = system: RAN translation of r(G4C2)66; assay: RAN translation assay in HEK293T cells; assay type: cell-based, human
Method: RAN Translation Assay. Inhibition of RAN translation in HEK239T cells was completed as previously described (12). Briefly, HEK293T cells (6×10^6 cells) were seeded in growth medium and incubated at 37° C. overnight. Cells were co-transfected with 2 μg of a plasmid encoding r(G4C2)66-No ATG-NanoLuciferase and 1 μg SV40-Firefly luciferase plasmid with Lipofectamine 3000 (Life Technologies) per the manufacturer's protocols. Following transfection, the cells (˜8000/well) were plated in a clear bottom 384-well plate and incubated at 37° C. for 2 h. Compounds were added in growth medium such that the final concentration of DMSO was less than 1%. The G4C2-LNA and control-LNA (Table 3) were transfected with RNAiMax at a final concentration of 100 nM following transfection with RNAiMax (Life Technologies) per the manufacturer's recommended protocol. RAN and canonical translation was measured following 24 h treatment using a Dual-Luciferase® Reporter Assay System (Promega) following manufacturer's protocol. Experiments were performed as biological triplicates (n=3). Luminescence from Nano-Luciferase activity (RAN translation) was normalized to luminescence from firefly luciferase activity. This ratio for vehicle-treated samples was then set to 1 and the ratios for treated samples normalized accordingly.

r(G4C2)8 = assay: Biolayer interferometry (BLI) binding
Method: Biolayer Interferometry (BLI). BLI studies were performed similarly as previously described (12) using an Octet RED96. Briefly, 5′-biotinylated nucleic acids were folded by heating at 95° C. for 4 min in 10 mM sodium phosphate buffer, pH 7, followed by slowly cooling to room temperature. Then, to the folded RNA were added the following components: 1.386 mL 1×DPBS (21-031-CV, Corning), 180 μL freshly prepared 1% (w/v) BSA, 36 μL 1% (v/v) Tween-20, and 18 μL DMSO (1% final concentration) in a final volume of 1.8 mL. The final concentration of RNA was 0.5 μM. Separately, serial dilutions of the compound of interest were prepared in the same buffer.
The resulting curves were analyzed and processed using Octet Data Analysis software version 9.1 by subtracting the response of the sensors recorded upon incubation with solutions containing compound and no RNA (parallel reference). The data were then fitted assuming reversible binding using the entire time interval for association and dissociation using either 1:1 or the 2:1 heterogeneous binding curve fitting model. The reported Kd,n, kon,n and koff,n values represent the average of two independent experiments.

r(G4C2)exp = assay: ASO-Bind-Map target profiling in patient-derived LCLs; assay type: cell-based, human; conditions: ASO 100 nM
Method: Target profiling by ASO-Bind-Map. LCLs were first treated with compounds overnight at 37° C. and then transfected with G4C2-ASO (100 nM; Table 3). The cells were then incubated for another 24 h at 37° C. followed by extraction of total RNA as described above. The levels of various fragments were then measured by RT-qPCR as described above.

dissociation rate (koff) compared to 2 (r(G4C2)8; BLI) | Kd (r(G4C2)8; BLI, read-out: Kd) | Kd (r(G4C2)8; BLI, read-out: Kd, 2) | bound more avidly to r(G4C2)8 than 2 (r(G4C2)8; Kd relative to 2) | SMILES | abundance of eight transcripts with short r(G4C2) repeats [1] | Nup98 abundance (Nup98) | reduction of number of r(G4C2)exp-containing nuclear foci [2] | RAN translation of r(G4C2)66 (Nano-luciferase activity) [3] | intron 1 levels of C9orf72 mRNA in competition with G4C2-ASO (r(G4C2)exp)
 |  |  |  | CCOC(=O)C1=C(Nc2ccccc2)S/C(=C\c2ccc(OCCOCCOCCOCCNC(=O)CCC(=O)N(CCOCCOCCOc3ccc4[nH]c5c(C)c6ccncc6c(C)c5c4c3)CCOCCOCCOc3ccc4[nH]c5c(C)c6ccncc6c(C)c5c4c3)c(O)c2)C1=O [Compound 7] | No decrease | reversed the loss of Nup98 |  |  | 
slower dissociation rate | 4 ± 0.07 nM | 900 nM | ~13 fold | Cc1c2ccncc2c(C)c2c1[nH]c1ccc(OCCOCCOCCNCCOCCOCCOc3ccc4[nH]c5c(C)c6ccncc6c(C)c5c4c3)cc12 [Compound 3] |  |  | ~60% | inhibited | dose-dependent increase
